{"source": "patent US6670343B1", "about": "“Drugs for periodontal disease” (Toray Industries, Inc., priority 1999, dated 2003)", "origin": "cited, not measured here", "conditions": "reported in J. Periodontology 63, 825-830 (1992)", "data": [{"molecule": "NCCCC(O)(P(=O)(O)O)P(=O)(O)O", "note": "[4-amino-1-hydroxybutylidene-1,1-bisphosphonic acid]", "values": [{"measurement": "effect on alveolar bone resorption", "value": "effectively suppresses alveolar bone resorption"}, {"measurement": "effect on dental pocket formation and gingival inflammation", "value": "not effective"}]}]}
